In patent US20110053969A1, “NOVEL DIAZASIPIROAKANES AND THEIR USE FOR TREATMENT OF CCR8 MEDIATED DISEASES” (ASTRAZENECA AB, priority 2005, published 2011):
Structures can show the parent of a compound that is named as a salt.

What was measured:
[1] = target: T1, human recombinant chemokine CCR8 receptor (Homo sapiens, UniProt P51685); test: CCL1 SPA binding assay; conditions: inhibition of 125I CCL1 binding to membranes from CHO-K1 cells transfected with human CCR8
T1 construct: purchased Euroscreen ES-136-M; host or cells: CHO-K1 cells (transfected), membrane preparation
T1 sequence (P51685 whole entry): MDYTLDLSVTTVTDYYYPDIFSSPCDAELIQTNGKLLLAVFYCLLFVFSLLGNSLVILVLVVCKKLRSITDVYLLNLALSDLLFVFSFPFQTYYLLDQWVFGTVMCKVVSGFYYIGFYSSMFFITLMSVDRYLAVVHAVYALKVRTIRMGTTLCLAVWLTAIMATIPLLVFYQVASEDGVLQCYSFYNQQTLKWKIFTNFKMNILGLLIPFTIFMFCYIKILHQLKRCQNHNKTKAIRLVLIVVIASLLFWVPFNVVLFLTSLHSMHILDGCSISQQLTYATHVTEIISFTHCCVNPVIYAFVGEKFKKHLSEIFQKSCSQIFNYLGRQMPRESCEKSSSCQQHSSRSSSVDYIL
Method: Membranes from CHO-K1 cells transfected with human recombinant chemokine CCR8 receptor (ES-136-M) were purchased from Euroscreen. Membrane preparations are stored at −70 C in 7.5 mM Tris-Cl pH 7.5, 12.5 mM MgCl2, 0.3 mM EDTA, 1 mM EGTA, 250 mM sucrose until used.
The CCR8 membranes (50.6 mg/ml) were preincubated with Wheat Germ Agglutinin SPA beads (4.05 mg/ml) in assay buffer (50 mM HEPES, 1 mM CaCl2x2H2O, 5 mM MgCl2x6H2O, 75 mM NaCl, 0.1% BSA) at pH=7.4 for 2 hours on ice. A 10-point dose-response curve (final concentrations 50 μM, 16.7 μM, 5.6 μM, 1.9 μM, 0.62 μM, 0.21 μM, 0.069 μM, 0.023 μM) was prepared by diluting compounds by serial dilution 1:3 in DMSO. In the screening plate (Polystyrene NBS plates, Costar Corning 3604) 1 μl from the DMSO solutions of compounds was transferred into each well. 1 μl of DMSO was added to the blank control wells and 1 μl unlabeled CCL1 (300 nM) was added to background control wells. 50 μl of the SPA bead-membrane mixture was added into each well. Finally, 50 μl. ([…]) ^125I CCL1 (2000 Ci/mM) was added to each well. Plates were then incubated at RT with shaking (700 rpm) for 90 minutes followed by 30 minutes at RT without shaking. The plate was read in a Wallac MicroBeta counter for 2 minutes/well.

[2] = Human microsomal stability assay; assay type: in vitro ADME; conditions: human microsomes (Xenotech), 1 mg microsomal protein/mL, 2.5 μM compound, 2 mM NADPH, pH 7.4, 37° C., read-out: Human Microsomal Stability (intrinsic Clearance, CLint)
Method: Human Microsomal Stability Assay
The assay is run in a 96-deepwell format at 1 mg microsomal protein (Xenotech)/mL in potassium phosphate buffer (pH 7.4) with a compound concentration of 2.5 μM and a NADPH concentration of 2 mM. Samples at four time-points (0, 5, 15 and 30 minutes) are withdrawn and the enzymatic reaction is terminated by protein precipitation with 1% acetic acid in acetonitrile. The incubations are performed on a thermostated plate (37° C.) placed on a Tecan worktable, and all liquid handling was performed robotically. After centrifugation of the samples, the supernatants are pooled in sets of four before they are analysed by liquid chromatography with tandem mass spectrometry detection (LC/MS/MS) using multiple reaction monitoring (MRM). Data are presented as intrinsic Clearance (CLint), μl/min/mg protein, calculated from the initial linear part of the compound disappearance curve.

Compound	IC50 [1] [nM]	microsomal CLint at 2.5 μM [2] [µL/min/mg]
CC(C)COc1ccccc1CN1CCC2(CC1)CCN(C(=O)c1ccc[nH]c1=O)CC2 [A, 3-{[9-(2-isobutoxybenzyl)-3,9-diazaspiro[5.5]undec-3-yl]carbonyl}pyridin-2(1H)-one, reference compound]	1950	
COc1ccccc1Oc1ccccc1CN1CCC2(CC1)CCN(C(=O)c1ccc[nH]c1=O)CC2 [Example 2, 3-({9-[2-(2-methoxyphenoxy)benzyl]-3,9-diazaspiro[5.5]undec-3-yl}carbonyl)pyridin-2(1H)-one]	62	< 10
COc1ccccc1Oc1cccc(CN2CCC3(CC2)CCN(C(=O)c2ccc[nH]c2=O)CC3)c1 [Example 4, 3-({9-[3-(2-methoxyphenoxy)benzyl]-3,9-diazaspiro[5.5]undec-3-yl}carbonyl)pyridin-2(1H)-one]	15	21.7
CC(C)COc1ccccc1CN1CCC2(CC1)CCN(C(=O)c1ccc(=O)[nH]c1)CC2 [B, 5-{[9-(2-isobutoxybenzyl)-3,9-diazaspiro[5.5]undec-3-yl]carbonyl}pyridin-2(1H)-one, reference compound]	1900	
COc1ccccc1Oc1ccccc1CN1CCC2(CC1)CCN(C(=O)c1ccc(=O)[nH]c1C(F)(F)F)CC2 [Example 3, 5-({9-[2-(2-methoxyphenoxy)benzyl]-3,9-diazaspiro[5.5]undec-3-yl}carbonyl)-6-(trifluoromethyl)pyridin-2(1H)-one trifluoroacetate]	83	< 10
